Assay results: a melting point compilation (Tetko et al.; mined from patent text by program, amines drawn as free bases though some values may be those of a salt)

| SMILES | melting point |
| --- | --- |
| CNC(=S)NS(=O)(=O)c1cc(CCNC(=O)c2cc(Cl)ccc2OC)ccc1-c1ccc(Cl)cc1 | 189 to 192 °C |
| NS(=O)(=O)c1cc(Br)ccc1F | 153 to 154 °C |
| COc1cccc2c1CC(C(=O)NCCOc1ccc(C(=O)O)cc1)N2S(=O)(=O)c1ccc(-c2ccc(F)cc2Cl)cc1 (stereo not given) | 190 to 204 °C |
| CC(C)(NS(=O)(=O)c1ccc2oc3cc(Cl)ccc3c2c1)C(=O)NO | 195 to 196 °C |
| O=S(=O)(NCC1CCN(CCCOc2ccc(F)cc2)CC1)c1cccc2cnccc12 | 123 to 125 °C |
| C#CCCCCCCOC(c1ccccc1)(c1ccccc1)c1ccccc1 | 43 to 45 °C |
| COCC1CNc2nc(N)[nH]c(=O)c2N1 (racemic) | > 250 °C |
| CCOC(=O)c1c(CN(CC)CC)nc2sc3ncccc3c2c1-c1ccc(OC)c(OC)c1 | 156 to 157 °C |
| CN(C(=O)[C@H]1C[C@H](C(=O)O)[C@@H](c2ccccc2F)N1C(=O)CNC(=O)Nc1cccc(CC(=O)O)c1)c1ccccc1 (racemic) | 164 °C |
| CC(=O)c1c[nH]c2cc(-c3ccncc3)ccc2c1=O | > 300 °C |
| CCOc1ccc(C(=O)[C@H]2CC=CC[C@H]2C(=O)O)cc1OCC (relative stereo) | 125 to 127 °C |
| CCN(CC)CCNC(=O)c1cc(Cl)c(N)cc1OCCO | 144 to 146 °C |
| CCCCSc1ccc(C(=O)Nc2ccc3cc(CN4CCCC4)cnc3c2C)cc1 | 147 °C |
| CN1CCC(Sc2ccccc2)C(C#N)C1 (stereo not given) | 114 °C |
| COc1ccc2cc3c(c(-c4ccc5c(c4)OCO5)c2c1OC)C(=O)NC3=O | 274 to 276 °C |
| Cn1nc(-c2cnc(N)nc2-c2cccs2)ccc1=O | 270 °C |
| CCOC(=O)c1c(C)ncn(-c2ccc(Cl)cc2)c1=O | 98 to 100 °C |
| CON=Cc1nc2c(N)nc3cc(-c4ccccc4)ccc3c2s1 | 259 to 261 °C |
| CC(C)CC(SC1CCCCC1)c1c(O)cc(-c2ccccc2)oc1=O (stereo not given) | 210 to 212 °C |
| N#Cc1ccc(-c2sc(N)c(C(=O)c3ccc(Cl)cc3)c2CN(C2CCCCC2)C2CCCCC2)cc1 | 196 to 200 °C |
| CC(C)(C)OC(=O)NS(=O)(=O)N1CCC(F)(F)CC1 | 82 to 83 °C |
| CCOc1ccc2ccccc2c1C(=O)NC(Cc1ccc(C(F)(F)F)cc1)C(=O)c1ccc(F)cc1 (stereo not given) | 188 to 189 °C |
| CCOC(=O)c1cnc2c(c1)C(=O)C=CC2=O | 124 °C |
| COC(=O)C1Cc2c(ncn2Cc2ccccc2)CN1Cc1ccccc1 (stereo not given) | 91 to 93 °C |
| COc1cc2c(cc1OC(C)=O)CCC1C2CCC2(C)C1CCC21OCCO1 (stereo not given) | 166 to 167 °C |

| SMILES | melting point |
| --- | --- |
| CC(c1cc(Cl)cc(Cl)c1O)c1cc(F)cc(Cc2cc(Cl)cc(Br)c2O)c1O (stereo not given) | 171 °C |
| Cc1nnc2n1-c1ccc(Cl)cc1C(c1ccccc1)N2 (stereo not given) | 262 to 265 °C |
| CN(C)C=CC(=O)c1ccc(-c2ccc(N(c3ccccc3)c3ccccc3)cc2)cc1 | 166 to 167 °C |
| CCOC(=O)c1ccc(C#Cc2ccc3c(c2)C(=O)CC(C)(C)S3)cc1 | 102 to 104 °C |
| NC(=S)Nc1ccc(CCNCc2cccc(Cl)c2)cc1 | 132 to 134 °C |
| CCOP(=O)(CC(=O)N1CCc2ccccc21)OCC | 97 to 99 °C |
| CCOC(=O)c1c(C)cc2c(=O)n(-c3ccccc3C(=O)O)cnc2c1C | 207 to 210 °C |
| O=C(c1ccccc1)c1cc(Cl)cc(I)c1O | 110 to 111 °C |
| CC(=O)OCC1OC(Cl)C(N=[N+]=[N-])C(OC(C)=O)C1OC(C)=O (stereo not given) | 102 to 104 °C |
| N#Cc1ccncc1OC1SCC(O)C(O)C1O (stereo not given) | 157 °C |
| CCOC(=O)NC1Cc2ccccc2C1 | 68 to 68.5 °C |
| O=C(c1ccc(O)c(O)c1)c1cccc(C(Cc2ccccc2)Cc2ccccc2)n1 | 141 to 143 °C |
| CCC1(Cl)Cc2cc(OC(C)(C)C(=O)O)c(Cl)c(Cl)c2C1=O (stereo not given) | 164 to 165 °C |
| CN(C)CCOc1cccc2c1c1cccc3c1n2C(c1ccccc1)CO3 (stereo not given) | 117 to 118 °C |
| CC(=O)Nc1ccc(N(c2ccccc2)C2(c3ccc(N(C)C)cc3)OC(=O)c3ccccc32)cc1 (stereo not given) | 182 to 184 °C |
| O=C1N(Cc2ccc(F)cn2)c2ccccc2C12COc1cc3c(cc12)OCCO3 (stereo not given) | 174 to 176 °C |
| CC(C)(C)OC(=O)NCC(Cl)c1cccs1 (stereo not given) | 40 to 43 °C |
| CCOC(=O)C1=NOC2(CCC(C3CCCCC3)CC2)C1 (stereo not given) | 64 to 71 °C |
| COC1=C(CCO)C(=O)C(OC)=C(CCCCCC2=C(OC)C(=O)C(CCO)=C(OC)C2=O)C1=O | 97 to 99 °C |
| c1cc2c(Nc3ccc4[nH]ccc4c3)ncnc2cn1 | 265 °C |
| CC(C(=O)O)c1cccc(NC(=O)NCC(=O)N2[C@@H](c3ccccc3)CC[C@H]2C(=O)OC(C)(C)C)c1 (stereo not given in full) | 120 °C |
| CC(C)(C)OC(=O)N1CCC(COc2ccc(N3CCCC3)cc2)CC1 | 141 to 145 °C |
| COc1ccc2c(c1)C(=O)CC1(CCN(SCCc3cc(=O)n(C)c(=O)n3C)CC1)O2 | 191 to 194 °C |
| CCCc1cc(O)ccc1-c1noc2cc(O)ccc12 | 189 to 191 °C |
| N#CCCn1nc(-c2ccccc2)c(-c2ccccc2)c(C#N)c1=O | 160 to 161 °C |

| SMILES | melting point |
| --- | --- |
| C#Cc1cccc(Nc2ncnc3cnc(F)cc23)c1 | 225 to 227 °C |
| CC1CCc2c(N3CCCC3)c(F)cc3c(=O)c(C(=O)O)cn1c23 (stereo not given) | 243 to 245 °C |
| O=C(NC[C@@H](C(=O)NO)N1CCOCC1)c1ccc(OCc2ccnc(-c3cccc(C(F)(F)F)c3)c2)cc1 | 151 °C |
| C=CCC1(CC=C)c2cccc(OC)c2C(=O)c2cccc(Cl)c21 | 165 to 166 °C |
| Cc1c(OCc2ccc([Si](C)(C)C)cc2)cnn(C(C)(C)C)c1=O | 93.5 to 95.5 °C |
| Cc1ccccc1NC(=O)Nc1ccc(CC(=O)NC(CC(C)C)c2cc(C=CC(=O)O)on2)cc1 (stereo not given) | 136 to 138 °C |
| NC(=O)c1c(N)cccc1N1CCCC1 | 144 to 146 °C |
| O=C1COc2cc(NC(=O)C(=O)N3CCC(CCc4ccccc4)CC3)ccc2N1 | 128 to 132 °C |
| COc1cc(OC)nc(NC(=O)NS(=O)(=O)c2ccccc2C2=NOCCO2)n1 | 189 °C |
| CC1=CC(O)C(OC(=O)c2ccc(N)cc2)C(C)(C)CC1=O (stereo not given) | 170 to 171 °C |
| Cc1ccc(C=NO)cc1Cl | 66 to 68 °C |
| N#Cc1c(F)cccc1-c1ccccc1 | 78 to 79 °C |
| CC(C)c1cccc(C(C)C)c1NC(=O)NCC1(c2ccc(C(F)(F)F)cc2)CCCC1 | 196 to 197 °C |
| CCCCCn1c(=O)c(-c2ccccc2)c2n(c1=O)CCCS2 | 100 to 101 °C |
| O=[N+]([O-])c1cccc(NN=C(c2ccc(Cl)cc2)c2ccc(Cl)cc2)c1 | 170 to 172 °C |
| CNC1=Nc2ccc(Cl)cc2C(c2ccccc2Cl)=NC1 | 216 to 219 °C |
| O=C(O)C1SC(c2ccccc2)=NN1C(=O)CCS (stereo not given) | 145 to 146 °C |
| COc1cc(NS(C)(=O)=O)ccc1C1=NC2=CCC(=O)NC2=N1 | > 255 °C |
| CCOC(=O)C1(C(=O)OCC)CCC=C2C1CCC1=Cc3c(cnn3-c3ccc(F)cc3)CC12C (stereo not given) | 133 to 135 °C |
| COC(=O)c1cccc(C(=O)Cc2cccc(Br)n2)c1 | 84 to 86 °C |
| CCCCCCCCCCCCSc1nnn(C(C(=O)Nc2c(OC)cc(OC)cc2OC)c2ccccc2)n1 (stereo not given) | 141 to 143 °C |
| COc1ccc2cc3c(c(-c4ccc(F)cc4)c2c1)C(=O)NC3=O | 281 to 284 °C |
| c1cnc(NCc2ccc3c(c2)-c2[nH]nc(-c4ccsc4)c2C3)nc1 | 259 to 260 °C |
| CCCCCN(CCC12CC3CC(CC(C3)C1)C2)C(=O)NCCc1cccnc1 | 112 to 114 °C |
| CCCCNc1nnc(NCCCC)c2cc3c(OC)cccc3cc12 | 178 to 180 °C |

| SMILES | melting point |
| --- | --- |
| Nc1ccc(C=C2c3ccccc3C=Cc3ccccc32)cc1 | 119 to 120 °C |
| N#Cc1nn(-c2c(Cl)cc(C(F)(F)F)cc2Cl)cc1C(=O)C(F)(F)F | 124 to 125 °C |
| COCc1cnc2nc(N)nc(N)c2n1 | 248 to 251 °C |
| O=C1N(Cc2cc(F)ccn2)c2ccccc2C12COc1cc3c(cc12)OCCO3 (stereo not given) | 228 to 231 °C |
| CCCOCCCCCCCCCC(=O)O | < 30 °C |
| C=CCc1cc(C(C)=O)c(O)cc1OCCCCC#N | 54 °C |
| CN1CCN(c2ccccc2-c2ccc(C#N)c(=O)[nH]2)CC1 | 202 to 203 °C |
| C#CCCCNC(=O)C(c1ccccc1)c1ccccc1 | 90 °C |
| COC(=O)C(C)(C)NC(=O)Nc1ccc(Cl)c(C(F)(F)F)c1 | 141 to 142 °C |
| CC(C)(N)c1ccc(-c2nc(Nc3ccc(F)c(F)c3)ncc2C#N)cc1 | 192 °C |
| O=C(c1ccc(Cl)cc1)c1c(N2C(=O)c3ccccc3C2=O)sc(Br)c1CO | 170 to 172 °C |
| CCOC(=O)Cn1c(C(=O)OCc2ccccc2)cc2cc(F)ccc21 | 75 to 76 °C |
| CC(C)(C)OC(=O)NC(Cc1c[nH]c2ccccc12)C(=O)CCc1cc(C(F)(F)F)cc(C(F)(F)F)c1 (stereo not given) | 138 to 140 °C |
| CC(=O)c1c(Cl)c(Cl)c([N+](=O)[O-])c2c1OCCO2 | 181 to 182 °C |
| Cc1ccc(S(=O)(=O)Oc2ccc(S(=O)(=O)C3(C(=O)C(C)C)CC3)cc2)cc1 | 106 to 107 °C |
| COCCOCC(=O)Nc1cccc2c1C1(COc3cc4c(cc31)OCCO4)C(=O)N2C (stereo not given) | 122 to 123 °C |
| COc1ccc(/C=C/c2ccccc2[N+](=O)[O-])c([N+](=O)[O-])c1 | 142 to 143 °C |
| CC(COc1ccc(O)c(C(N)=O)c1)N(Cc1ccccc1)CC(O)COc1ccc(OCc2ccccc2)cc1 (stereo not given) | 149 to 160 °C |
| Cc1cc(C2OC(=O)NC2=O)c(C)o1 (stereo not given) | 144 to 145 °C |
| O=S1CCN(c2ccc(-n3cc(CN=C=S)nn3)cc2F)CC1 | 182 to 184 °C |
| CCc1ccccc1CC1CNC(=O)O1 (stereo not given) | 104 to 105 °C |
| CN1CNC(=S)N(c2ccc(N(C)C)cc2)C1 | 173 to 175 °C |
| CCc1nc(O)c2c(n1)c(C)nn2C | 220 to 222 °C |
| Nc1ccc(N2CCCCC2)c(C(=O)O)c1 | 232 to 235 °C |
| Cc1cc(C)c(Nc2nc(C)ccc2S(=O)(=O)c2ccc(O)cc2)c(C)c1 | 226 to 228 °C |
